Results published in patent publication US20020028807A1, “Non-nucleoside reverse transcriptase inhibitors” (priority 2000, published 2002).

Tests used:
[1] = molecular target: T1, HIV-1 RT wild-type (WT) (Human immunodeficiency virus type 1 group M subtype B, UniProt P03366); assay: Reverse transcriptase (RT) assay, wild-type enzyme; assay type: biochemical
T1 construct: an HIV RT clone pKRT2 containing only the RT p66 gene regulated by the lac operon/trc promoter; made in house; host or cells: E. coli JM109, vector pKK233-2
From the text: (§1) Among the enzymes for which Human Immunodeficiency Virus (HIV-1) encodes is a reverse transcriptase (1), so-named because it transcribes a DNA copy from an RNA template. This activity can be quantitatively measured in a cell-free enzyme assay and is based upon the observation that reverse transcriptase is able to use a synthetic template poly r(C) primed with a biotinylated oligo d(G) to transcribe a radio-labelled DNA strand utilising 3H-dGTP as a substrate. The assay described below utilises the wild-type enzyme (which is the predominant form of the enzyme observed in patients infected with HIV-1) and can also be used with mutant RT enzymes (for example, Y181C, prepared by site-directed mutagenesis in which the tyrosine residue at codon 181 has been replaced by a cysteine residue) in analogous assay conditions. This assay allows compounds to be evaluated for their effectiveness at inhibiting the mutant enzymes.
(§2) Some HIV-1 IIIB clone BH10 RT mutants were provided by Dr. C.-K. Shih (Boehringer Ingelheim Pharmaceutials Inc., U.S.A.) in the vector pKK233-2 (Pharmacia). Briefly an HIV RT clone pKRT2 containing only the RT p66 gene regulated by the lac operon/trc promoter was obtained from Dr. W. Summers (Yale University) (2). A variety of specific amino acid substitutions were introduced into the wild-type RT gene by site-directed mutagenesis. RT clones were subcloned into the pKK233-2 bacterial expression vector. Clones provided included wild-type, Val106Ala, Tyr181Cys, Tyr188Cys, Tyr188Leu, Gly190Ala and Pro236Leu. Others were made in-house by site-directed mutagenesis of the pKK233-2 RT clones including Lys103Asn, Lys103Asn/Tyr181Cys, Lys103Asn/Leu100Ile, Lys103Asn/Pro225His, and Lys103Asn/Val108Ile.
(§3) Purification of recombinant reverse transcriptase was performed using a combination of methods previously described (3). A single colony from a fresh plate of transformed JM109 cells was used to initiate growth of a pre-culture grown o/n at 37° C. Two liters of growth medium were inoculated with this pre-culture. At OD600˜1.5 (5-6 h at 37° C.), RT gene expression was induced with IPTG (1 mM final), and the fermentation was continued for a few more hours at 37° C. After centrifugation, supernatants were discarded while cell pellets were pooled and stored at −80° C. until purification. Cells were thawed at 4° C. overnight and suspended in lysis buffer (MES 50 mM pH 6, EDTA 1 mM, 10% v/v glyerol, 0.02% w/v OBG, 0.02% w/v sodium azide). Lysozyme was added and the mixture was incubated on ice for 40 minutes. After homogenization using a bounce in presence of lysozyme and sonication, the cells were centrifuged for 30 minutes. Supernatant (S1) was saved and stored at 4° C. The centrifuged pellet was resuspended in extraction buffer (MES 50 mM pH 6, KPO4 50 mM pH 6, KCl 100 mM, 10% v/v glycerol, 0.02% w/v OBG, 0.02% w/v sodium axide) and stirred for 30 minutes at 4° C. This second mixture was centrifuged again and the supernatant (S2) was saved. The above procedure was repeated 2 more times saving supernatants S3 and S4 and one last extraction was performed overnight (S5). Polymin P (0.005% final) was added to the combined supernatants to remove nucleic acids. This solution was stirred for 75 minutes at 4° C. and centrifuged for 1 h. The supernatant (SS1) was precipitated on ice with 20% w/v ammonium sulfate and stirred for 1 h at 4° C. The mixture was then centrifuged and the resulting supernatant (SS2) was precipitated with additional 40% w/v ammonium sulfate (60% total), stirred for 1 h and centrifuged again. The final pellet (P1) was stored overnight at 4° C. before undergoing purification the following day. All steps of the purification were performed at 4° C. unless otherwise stated.
(§4) Pellet (P1) was resuspended into MES 50 mM pH 6, KPO4 10 mM pH 6, KCl 100 mM, 10% v/v glycerol, 0.02% w/v OBG, 0.02% w/v sodium azide. The suspension was dialysis against the same buffer overnight using 12-14 kD MWCO dialysis tubing. […]

[2] = molecular target: T2, HIV-1 RT V106A (Human immunodeficiency virus type 1 group M subtype B, UniProt P03366, V705A); assay: Reverse transcriptase (RT) assay, V106A mutant; assay type: biochemical
T2 construct: an HIV RT clone pKRT2 containing only the RT p66 gene regulated by the lac operon/trc promoter; made in house; host or cells: E. coli JM109, vector pKK233-2
From the text: as §1, §2, §3, §4

[3] = molecular target: T3, HIV-1 RT Y188L (Human immunodeficiency virus type 1 group M subtype B, UniProt P03366, Y787L); assay: Reverse transcriptase (RT) assay, Y188L mutant; assay type: biochemical
T3 construct: an HIV RT clone pKRT2 containing only the RT p66 gene regulated by the lac operon/trc promoter; made in house; host or cells: E. coli JM109, vector pKK233-2
From the text: as §1, §2, §3, §4

[4] = molecular target: T4, HIV-1 RT G190A (Human immunodeficiency virus type 1 group M subtype B, UniProt P03366, G789A); assay: Reverse transcriptase (RT) assay, G190A mutant; assay type: biochemical
T4 construct: an HIV RT clone pKRT2 containing only the RT p66 gene regulated by the lac operon/trc promoter; made in house; host or cells: E. coli JM109, vector pKK233-2
From the text: as §1, §2, §3, §4

[5] = molecular target: T5, HIV-1 RT K103N/Y181C (Human immunodeficiency virus type 1 group M subtype B, UniProt P03366, K702N/Y780C); assay: Reverse transcriptase (RT) assay, K103N/Y181C mutant; assay type: biochemical
T5 construct: an HIV RT clone pKRT2 containing only the RT p66 gene regulated by the lac operon/trc promoter; made in house; host or cells: E. coli JM109, vector pKK233-2
From the text: as §1, §2, §3, §4

[6] = molecular target: T6, HIV-1 RT K103N/L100I (Human immunodeficiency virus type 1 group M subtype B, UniProt P03366, K702N/L699I); assay: Reverse transcriptase (RT) assay, K103N/L100I mutant; assay type: biochemical
T6 construct: an HIV RT clone pKRT2 containing only the RT p66 gene regulated by the lac operon/trc promoter; made in house; host or cells: E. coli JM109, vector pKK233-2
From the text: as §1, §2, §3, §4

[7] = molecular target: T7, HIV-1 RT K103N/P225H (Human immunodeficiency virus type 1 group M subtype B, UniProt P03366, K702N/P824H); assay: Reverse transcriptase (RT) assay, K103N/P225H mutant; assay type: biochemical
T7 construct: an HIV RT clone pKRT2 containing only the RT p66 gene regulated by the lac operon/trc promoter; made in house; host or cells: E. coli JM109, vector pKK233-2
From the text: as §1, §2, §3, §4

[8] = molecular target: T8, HIV-1 RT Y188C (Human immunodeficiency virus type 1 group M subtype B, UniProt P03366, Y787C); assay: Reverse transcriptase (RT) assay, Y188C mutant; assay type: biochemical
T8 construct: an HIV RT clone pKRT2 containing only the RT p66 gene regulated by the lac operon/trc promoter; made in house; host or cells: E. coli JM109, vector pKK233-2
From the text: as §1, §2, §3, §4

[9] = molecular target: T9, HIV-1 RT K103N/V108I (Human immunodeficiency virus type 1 group M subtype B, UniProt P03366, K702N/V707I); assay: Reverse transcriptase (RT) assay, K103N/V108I mutant; assay type: biochemical
T9 construct: an HIV RT clone pKRT2 containing only the RT p66 gene regulated by the lac operon/trc promoter; made in house; host or cells: E. coli JM109, vector pKK233-2
From the text: as §1, §2, §3, §4

[10] = system: HIV coding for wild-type reverse transcriptase (WT RT); assay: ELISA (p24) assay of HIV replication in C8166 cell culture, wild-type RT virus; assay type: cell-based, HIV-1; conditions: Human immunodeficiency virus 1, C8166, 72 h, read-out: EC50 WT RT
Description: (§5) Compounds of the invention were tested for their ability to inhibit HIV replication in cell culture in a 96-well plate assay. Complete RPMI 1640, consisting of RPMI 1640+10% fetal bovine serum, 10 μg/ml gentamycin and 10 μM β-mercaptoethanol was used for dilution of the compound as well as cell growth medium. The T lymphocyte cell line C8166 was infected at a multiplicity of infection of 0.001 with viruses coding for wild-type and mutant reverse transcriptase. Cells were then incubated for three days in the presence of serial dilutions of the compounds of the invention. The supernatant was pooled from eight replica wells and the concentration of extracellular p24 was determined using a commercially available HIV-1 p24 antigen assay kit (Beckman-Coulter®). The level of inhibition (% inhibition) was calculated with the following equation: [formula]

[11] = system: HIV coding for mutant reverse transcriptase K103N; assay: ELISA (p24) assay of HIV replication in C8166 cell culture, K103N virus; assay type: cell-based, HIV-1; conditions: Human immunodeficiency virus 1, C8166, 72 h, read-out: EC50 K103N
Description: as §5

[12] = system: HIV coding for mutant reverse transcriptase Y181C; assay: ELISA (p24) assay of HIV replication in C8166 cell culture, Y181C virus; assay type: cell-based, HIV-1; conditions: Human immunodeficiency virus 1, C8166, 72 h, read-out: EC50 Y181C
Description: as §5

[13] = system: HIV coding for mutant reverse transcriptase V106A; assay: ELISA (p24) assay of HIV replication in C8166 cell culture, V106A virus; assay type: cell-based, HIV-1; conditions: Human immunodeficiency virus 1, C8166, 72 h, read-out: EC50 V106A
Description: as §5

[14] = system: HIV coding for mutant reverse transcriptase Y188L; assay: ELISA (p24) assay of HIV replication in C8166 cell culture, Y188L virus; assay type: cell-based, HIV-1; conditions: Human immunodeficiency virus 1, C8166, 72 h, read-out: EC50 Y188L
Description: as §5

[15] = system: HIV coding for mutant reverse transcriptase K103N/Y181C; assay: ELISA (p24) assay of HIV replication in C8166 cell culture, K103N/Y181C virus; assay type: cell-based, HIV-1; conditions: Human immunodeficiency virus 1, C8166, 72 h, read-out: EC50 K103N/Y181C
Description: as §5

SMILES	IC50 [1]	IC50 [2]	IC50 [3]	IC50 [4]	IC50 [5]	IC50 [6]	IC50 [7]	IC50 [8]	IC50 [9]	EC50 [10]	EC50 [11]	EC50 [12]	EC50 [13]	EC50 [14]	EC50 [15]
CCN1c2ncc(CCOc3ccnc4ccccc34)cc2C(=O)N(C)c2cccnc21 [compound 24, 5,11-Dihydro-11-ethyl-5-methyl-8-{2-(4-quinolinyloxy)ethyl}-6H-dipyrido[3,2-b:2′,3′-e][1,4]diazepin-6-one]	5.6 nM	344 nM	627 nM	25 nM	70 nM	169 nM									
CCN1c2ncc(CCOc3cc[n+]([O-])c4ccccc34)cc2C(=O)N(C)c2ccc(C)nc21 [compound 28, 2,5-Dimethyl-5,11-dihydro-11-ethyl-8-{2-{(1-oxido-4-quinolinyl)oxy}ethyl}-6H-dipyrido[3,2-b:2′,3′-e][1,4]diazepin-6-one]	19 nM	605 nM	1190 nM	25 nM	141 nM	28 nM	25 nM	9 nM	35 nM	1.3 nM	2.3 nM	2.6 nM	42 nM	70 nM	7.5 nM
